We go through 18 molecules from publication PMC6264673, “Synthesis and SAR Study of Novel Peptide Aldehydes as Inhibitors of 20S Proteasome” (Molecules, 2011).

Non-standard residues stand in square brackets, D forms with d. Residues, ends and D or L forms follow the SMILES beside them. *: point of attachment. Arg(NO2) = N=C(NCCC[C@H](N)C(=O)O)N[N+](=O)[O-]; 2Nal = N[C@@H](Cc1ccc2ccccc2c1)C(=O)O; Tos = Cc1ccc(S(=O)(=O)*)cc1; Cbz = O=C(OCc1ccccc1)*; Boc = CC(C)(C)OC(=O)*; OBn = c1ccc(CO*)cc1; Bn = c1ccc(C*)cc1; OtBu = CC(C)(C)O*

The assay addresses T1, ChT-L activity of 20S proteasome (Mus musculus, UniProt O09061+O55234).
T1 construct: 20S proteasome purified from mouse liver; from tissue; host or cells: mouse liver
Kind of assay: Assay for ChT-L activity of 20S proteasome with fluorogenic peptide Suc-Leu-Leu-Val-Tyr-AMC. In kind it is biochemical. The conditions noted are these: for IC50: 20S proteasome purified from mouse liver (1 μg), 50 μM Suc-Leu-Leu-Val-Tyr-AMC, 20 mM Tris-HCl pH 7.8, 37 °C, 1 h; for fold higher ChT-L inhibitory activity than the other Cbz series compounds: comparison within the Cbz series; for ChT-L inhibitory activity compared with the control MG132: result in words, versus positive control MG132. The method, then:
Inhibitory activities of peptide aldehydes on the 20S proteasome are assayed in vitro [41]. MG132 was used as the positive control (Table 1).
Assays for proteasome activities. The enzymatic activities of the proteasome were assayed using fluorogenic peptides: Suc-Leu-Leu-Val-Tyr-AMC (Suc represents succinyl and AMC represents […], obtained from Sigma) for ChT-L activity. 20S proteasome purified from mouse liver (1 μg) was incubated with various concentrations of compounds and 50 μM fluorogenic peptides in 20 mM Tris-HCl pH 7.8 (100 μL) at 37 °C for 1 h, respectively. The fluorescence of released AMC was measured by a spectrofluorimeter (Fluostar OPTIMA, BMG Germany) at excitation/emission wavelengths of 380/440 nm and 335/410 nm, respectively. 0.1% DMSO was used as solvent control. Compared with the fluorescence of solvent control, an inhibition rate was calculated and thereafter the IC50 value was deduced.

On to `CC(C)CC(C=O)NC(=O)C(Cc1ccccc1)NC(=O)C(CC(=O)OC(C)(C)C)NC(=O)OCc1ccccc1` [Compound 3a, Cbz-L-Asp(OtBu)-L-Phe-L-Leucinal] (Cbz-Asp(OtBu)-Phe-Leu-aldehyde; configuration not given here), for which 210 ± 14 nM corresponded to half-maximal inhibition (IC50).

On to `CC(C)CC(C=O)NC(=O)C(CC(C)C)NC(=O)C(CC(=O)OC(C)(C)C)NC(=O)OCc1ccccc1` [Compound 3b, Cbz-L-Asp(OtBu)-L-Leu-L-Leucinal] (Cbz-Asp(OtBu)-Leu-Leu-aldehyde; configuration not given here), for which the IC50 (in general, the concentration needed to halve the response being measured) worked out at 200 ± 35 nM. Take `CC(C)C[C@@H](C=O)NC(=O)[C@H](Cc1ccccc1)NC(=O)[C@H](CCC(=O)OC(C)(C)C)NC(=O)OCc1ccccc1` [Compound 3c, Cbz-L-Glu(OtBu)-L-Phe-L-Leucinal] (Cbz-Glu(OtBu)-Phe-Leu-aldehyde): the IC50 was 28 ± 6 nM, the “fold higher ChT-L inhibitory activity than the other Cbz series compounds” value is “about 10 fold” and the “ChT-L inhibitory activity compared with the control MG132” value was “much higher activities than the control MG132”. As for `CC(C)C[C@@H](C=O)NC(=O)[C@H](CC(C)C)NC(=O)[C@H](CCC(=O)OC(C)(C)C)NC(=O)OCc1ccccc1` [Compound 3d, Cbz-L-Glu(OtBu)-L-leu-L-Leucinal] (Cbz-Glu(OtBu)-Leu-Leu-aldehyde), half-maximal inhibition (IC50) required 89 ± 20 nM, the “fold higher ChT-L inhibitory activity than the other Cbz series compounds” value was “about 10 fold” and the “ChT-L inhibitory activity compared with the control MG132” value is given as “much higher activities than the control MG132”. Take `CC(C)C[C@@H](C=O)NC(=O)[C@H](CC(C)C)NC(=O)[C@H](CCCNC(N)=N[N+](=O)[O-])NC(=O)OCc1ccccc1` [Compound 3f, Cbz-L-Arg(NO2)-L-leu-L-Leucinal] (Cbz-[Arg(NO2)]-Leu-Leu-aldehyde): the IC50 is more than 50000 nM. Turning to `Cc1ccc(S(=O)(=O)NC(=N)NCCCC(NC(=O)OCc2ccccc2)C(=O)NC(CC(C)C)C(=O)NC(C=O)CC(C)C)cc1` [Compound 3g, Cbz-L-Arg(Tos)-L-leu-L-Leucinal] (Cbz-Arg(Tos)-Leu-Leu-aldehyde; configuration not given here), the IC50 is more than 50000 nM. Same read-out and setting: as for `CC(C)C[C@@H](C=O)NC(=O)[C@H](CC(C)C)NC(=O)[C@H](Cc1ccc2ccccc2c1)NC(=O)OCc1ccccc1` [Compound 3h, Cbz-L-(2-Naphthyl)alanine-L-Leu-L-Leucinal] (Cbz-[2Nal]-Leu-Leu-aldehyde), the figure is 410 ± 82 nM; as for `CC(C)C[C@@H](C=O)NC(=O)[C@H](Cc1ccccc1)NC(=O)[C@H](CC(=O)OCc1ccccc1)NC(=O)OC(C)(C)C` [Compound 3i, Boc-L-Asp(OBzl)-L-Phe-L-Leucinal] (Boc-Asp(OBn)-Phe-Leu-aldehyde), 4830 ± 2300 nM; as for `CC(C)CC(C=O)NC(=O)C(CC(C)C)NC(=O)C(CC(=O)OCc1ccccc1)NC(=O)OC(C)(C)C` [Compound 3j, Boc-L-Asp(OBzl)-L-Leu-L-Leucinal] (Boc-Asp(OBn)-Leu-Leu-aldehyde; configuration not given here), 20300 ± 2050 nM. Still for that read-out and setting: next, `CC(C)C[C@@H](C=O)NC(=O)[C@H](Cc1ccccc1)NC(=O)[C@H](CCC(=O)OCc1ccccc1)NC(=O)OC(C)(C)C` [Compound 3k, Boc-L-Glu(OBzl)-L-Phe-L-Leucinal] (Boc-Glu(OBn)-Phe-Leu-aldehyde): 7140 ± 1930 nM; `CC(C)C[C@@H](C=O)NC(=O)[C@H](CC(C)C)NC(=O)[C@H](CCC(=O)OCc1ccccc1)NC(=O)OC(C)(C)C` [Compound 3l, Boc-L-Glu(OBzl)-L-Leu-L-Leucinal] (Boc-Glu(OBn)-Leu-Leu-aldehyde): more than 50000 nM. As for `CC(C)CC(C=O)NC(=O)C(Cc1ccccc1)NC(=O)C1CCCN1C(=O)OC(C)(C)C` [Compound 3m, Boc-L-Pro-L-Phe-L-Leucinal] (Boc-Pro-Phe-Leu-aldehyde; configuration not given here), the IC50 was more than 50000 nM. Molecule `CC(C)CC(C=O)NC(=O)C(CC(C)C)NC(=O)C1CCCN1C(=O)OC(C)(C)C` [Compound 3n, Boc-L-Pro-L-Leu-L-Leucinal] (Boc-Pro-Leu-Leu-aldehyde; configuration not given here) gave an IC50 of more than 50000 nM. Consider `CC(C)CC(C=O)NC(=O)C(CC(C)C)NC(=O)C(COCc1ccccc1)NC(=O)OC(C)(C)C` [Compound 3o, Boc-L-Ser(OBn)-L-Leu-L-Leucinal] (Boc-Ser(Bn)-Leu-Leu-aldehyde; configuration not given here), for which the IC50 turned out to be 50 ± 2 nM and the “ChT-L inhibitory activity compared with the control MG132” value is given as “much higher activities than the control MG132”. Take `CC(C)CC(C=O)NC(=O)C(CC(C)C)NC(=O)C(NC(=O)OC(C)(C)C)C(C)OCc1ccccc1` [Compound 3p, Boc-L-Thr(OBn)-L-Leu-L-Leucinal] (Boc-Thr(Bn)-Leu-Leu-aldehyde; configuration not given here): the IC50 was determined as 290 ± 21 nM. The same measure, in the same setting: as for `CC(C)CC(C=O)NC(=O)C(CC(C)C)NC(=O)C(Cc1ccc(OCc2ccccc2)cc1)NC(=O)OC(C)(C)C` [Compound 3q, Boc-L-Tyr(OBn)-L-Leu-L-Leucinal] (Boc-Tyr(Bn)-Leu-Leu-aldehyde; configuration not given here), the figure is more than 50000 nM; as for `CC(C)C[C@@H](C=O)NC(=O)[C@H](CC(C)C)NC(=O)[C@H](CC(C)C)NC(=O)OCc1ccccc1` [MG132, Cbz-L-Leu-L-Leu-L-Leucinal, reference compound] (Cbz-Leu-Leu-Leu-aldehyde), 280 ± 60 nM; as for “Cbz-L-Phe-L-leu-L-Leucinal [Compound 3e]”, 850 ± 47 nM.
